# Counter-ions that a name gives are not always drawn.
# Target: T1, recombinant human baculovirus-expressed GST-tagged FASN (Homo sapiens, UniProt P49327)
# T1 construct: GST
# Assay: FASN enzyme activity assay, fluorescence-based detection of CoA with CPM
# Assay type: biochemical
# Details: 5 nM FASN, 150 μM NADPH, 10 μM acetyl-CoA, 25 μM malonyl-CoA, 90 minutes incubation; read-out: IC50 data for Additional Compounds of Formulae I-V(a): Activity
# In short: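 Human GST-tagged FASN, baculovirus-expressed (5 nM), in 50 mM HEPES pH 7.5 with 150 μM NADPH, 10 μM acetyl-CoA, 25 μM malonyl-CoA, 0.5% DMSO; malonyl-CoA-started, 90 min. Released CoA detected with CPM (50 μM dilution), 30 min, fluorescence ex 390/em 530. IC50 from variable-slope sigmoidal fit of % inhibition versus log concentration.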
# T1 sequence (P49327 whole entry): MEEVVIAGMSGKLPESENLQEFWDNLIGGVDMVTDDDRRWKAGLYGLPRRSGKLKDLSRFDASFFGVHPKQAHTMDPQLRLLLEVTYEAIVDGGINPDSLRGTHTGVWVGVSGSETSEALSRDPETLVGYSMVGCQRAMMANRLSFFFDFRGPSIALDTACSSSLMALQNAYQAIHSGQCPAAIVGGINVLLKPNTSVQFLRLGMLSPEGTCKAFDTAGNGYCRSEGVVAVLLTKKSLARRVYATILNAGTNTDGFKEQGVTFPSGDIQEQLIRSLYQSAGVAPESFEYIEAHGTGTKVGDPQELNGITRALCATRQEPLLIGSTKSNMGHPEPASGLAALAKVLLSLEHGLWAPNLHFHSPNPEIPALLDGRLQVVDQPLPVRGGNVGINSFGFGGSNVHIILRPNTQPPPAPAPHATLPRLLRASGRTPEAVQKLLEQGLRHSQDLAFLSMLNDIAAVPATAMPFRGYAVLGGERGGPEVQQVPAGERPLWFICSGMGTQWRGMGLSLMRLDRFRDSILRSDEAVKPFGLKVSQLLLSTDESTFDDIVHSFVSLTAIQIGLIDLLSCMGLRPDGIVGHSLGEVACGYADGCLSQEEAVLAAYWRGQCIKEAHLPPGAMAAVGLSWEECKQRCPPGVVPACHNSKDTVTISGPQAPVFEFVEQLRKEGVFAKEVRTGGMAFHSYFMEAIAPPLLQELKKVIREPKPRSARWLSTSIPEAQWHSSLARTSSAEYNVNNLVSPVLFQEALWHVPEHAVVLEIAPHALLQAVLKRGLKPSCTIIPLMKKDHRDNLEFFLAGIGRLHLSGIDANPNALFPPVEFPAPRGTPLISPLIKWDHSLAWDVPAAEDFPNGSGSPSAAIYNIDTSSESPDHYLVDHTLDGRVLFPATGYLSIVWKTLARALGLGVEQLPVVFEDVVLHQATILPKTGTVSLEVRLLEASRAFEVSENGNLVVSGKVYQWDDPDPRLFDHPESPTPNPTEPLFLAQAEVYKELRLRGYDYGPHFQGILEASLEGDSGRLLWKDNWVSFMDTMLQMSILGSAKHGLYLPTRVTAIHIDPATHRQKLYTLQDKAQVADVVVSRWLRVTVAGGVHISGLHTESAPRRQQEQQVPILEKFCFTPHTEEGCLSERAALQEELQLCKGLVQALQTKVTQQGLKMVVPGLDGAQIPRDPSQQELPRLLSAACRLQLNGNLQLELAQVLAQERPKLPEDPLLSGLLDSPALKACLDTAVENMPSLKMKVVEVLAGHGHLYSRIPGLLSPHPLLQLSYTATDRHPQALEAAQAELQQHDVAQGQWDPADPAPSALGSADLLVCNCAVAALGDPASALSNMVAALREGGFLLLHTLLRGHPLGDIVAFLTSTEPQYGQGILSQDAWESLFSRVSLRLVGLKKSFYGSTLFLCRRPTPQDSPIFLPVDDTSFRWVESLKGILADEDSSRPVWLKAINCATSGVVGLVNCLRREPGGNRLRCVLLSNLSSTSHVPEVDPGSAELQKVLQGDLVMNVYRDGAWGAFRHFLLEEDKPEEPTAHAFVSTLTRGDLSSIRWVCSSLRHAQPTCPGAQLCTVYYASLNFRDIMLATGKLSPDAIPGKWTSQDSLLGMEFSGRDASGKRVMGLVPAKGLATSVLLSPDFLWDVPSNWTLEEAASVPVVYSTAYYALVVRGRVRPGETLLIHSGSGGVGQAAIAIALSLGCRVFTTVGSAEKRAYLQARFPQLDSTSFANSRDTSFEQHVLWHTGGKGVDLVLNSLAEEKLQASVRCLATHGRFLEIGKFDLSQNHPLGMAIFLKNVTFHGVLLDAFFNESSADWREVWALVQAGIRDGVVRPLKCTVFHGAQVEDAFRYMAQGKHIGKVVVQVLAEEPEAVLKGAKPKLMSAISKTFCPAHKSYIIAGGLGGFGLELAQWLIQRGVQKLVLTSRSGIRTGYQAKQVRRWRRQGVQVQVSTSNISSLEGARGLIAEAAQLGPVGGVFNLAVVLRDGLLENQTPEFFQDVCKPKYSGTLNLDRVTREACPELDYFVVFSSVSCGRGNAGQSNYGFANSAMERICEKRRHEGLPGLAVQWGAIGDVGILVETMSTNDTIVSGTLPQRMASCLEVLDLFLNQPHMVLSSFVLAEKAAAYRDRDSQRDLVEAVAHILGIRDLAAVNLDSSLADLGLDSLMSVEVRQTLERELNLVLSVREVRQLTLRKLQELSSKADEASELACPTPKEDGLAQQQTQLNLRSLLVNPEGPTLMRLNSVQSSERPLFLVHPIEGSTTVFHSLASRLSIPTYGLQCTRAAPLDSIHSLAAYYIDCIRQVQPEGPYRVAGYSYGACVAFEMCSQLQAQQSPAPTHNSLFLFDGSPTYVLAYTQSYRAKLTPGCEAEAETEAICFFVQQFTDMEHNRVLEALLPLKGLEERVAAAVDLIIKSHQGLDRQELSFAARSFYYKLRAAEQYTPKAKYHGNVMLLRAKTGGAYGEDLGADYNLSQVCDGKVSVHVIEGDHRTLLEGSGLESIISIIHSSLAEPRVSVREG
row,IC50,SMILES
1,1000 to 10000 nM,"Cc1c(-c2ccc(OC3CCN(C(=O)NC(C)C)CC3)cc2)ccc2nccn12 [Example 603, N-Isopropyl-4-[4-(5-methylimidazo[1,2-a]pyridin-6-yl)phenoxy]piperidine-1-carboxamide]"
2,1000 to 10000 nM,"CCCONC(=O)N1CCC(Oc2ccc(-c3ccc4nccn4c3C)cc2)CC1 [Example 607, 4-[4-(5-Methylimidazo[1,2-a]pyridin-6-yl)phenoxy]-N-propoxy-piperidine-1-carboxamide]"
3,1000 to 10000 nM,"Cc1c(-c2ccc(OC3CCN(C(=O)[C@@H]4CCCN4C)CC3)cc2)ccc2cccnc12 [Example 617, [(2S)-1-Methylpyrrolidin-2-yl]-[4-[4-(8-methyl-7-quinolyl)phenoxy]-1-piperidyl]methanone]"
4,1000 to 10000 nM,"Cc1c(-c2ccc(OC3CCN(C(=O)OCC4CC4)CC3)cc2)ccc2cccnc12 [Example 553, Cyclopropylmethyl 4-[4-(8-methyl-7-quinolyl)phenoxy]piperidine-1-carboxylate HCl]"

row,SMILES,IC50
1,"Cc1c(-c2ccc(OC3CCN(C(=O)NOCC(C)C)CC3)cc2)ccc2cccnc12 [Example 544, N-Isobutoxy-4-[4-(8-methyl-7-quinolyl)phenoxy]piperidine-1-carboxamide]",1 to 99 nM

# Same assay, conditions: 5 nM FASN, 150 μM NADPH, 10 μM acetyl-CoA, 25 μM malonyl-CoA, 90 minutes incubation; read-out: IC50 data for Compounds of Formulae I-V/V(a): Activity
row,IC50,SMILES
1,1000 to 10000 nM,"O=C(C1CC1)N1CCC(Oc2ccc(-c3ccnc(-c4ccccc4)c3)cc2)CC1 [Example 403, Cyclopropyl-{4-[4-(2-phenylpyridin-4-yl)-phenoxy]-piperidin-1-yl}-methanone, TFA salt]"
2,100 to 999 nM,"CCC(=O)N1CC[C@@H](Oc2ccc(-c3ccc4cccnc4c3)cc2)C1 [Example 344, (R)-1-(3-(4-(Quinolin-7-yl)phenoxy)pyrrolidin-1-yl)propan-1-one, HCl]"
3,1 to 99 nM,"Cc1c(-c2ccc(O[C@H]3CCN(C(=O)[C@H]4CCCO4)C[C@H]3F)cc2)ccc2cccnc12 [Example 366, {cis-3-Fluoro-4-[4-(8-methylquinolin-7-yl)-phenoxy]-piperidin-1-yl}-(R)-tetrahydrofuran-2-yl-methanone HCl]"
4,1 to 99 nM,"O=C([C@H]1CCCO1)N1CCC(Oc2ccc(-c3ccc4cnccc4c3)cc2)CC1 [Example 467, [4-[4-(6-Isoquinolyl)phenoxy]-1-piperidyl]-[(2R)-tetrahydrofuran-2-yl]-methanone HCl]"
5,1000 to 10000 nM,"CCC(=O)N1CCC(Oc2ccc(-c3ccc4cccnc4c3)cc2)C1 (stereo in doubt) [Example 342, (S)-1-(3-(4-(Quinolin-7-yl)phenoxy)pyrrolidin-1-yl)propan-1-one, HCl]"
6,1000 to 10000 nM,"CCC(=O)N1CC[C@@H](Oc2ccc(-c3cnc4ccccc4c3)cc2)C1 [Example 345, (R)-1-(3-(4-(quinolin-3-yl)phenoxy)pyrrolidin-1-yl)propan-1-one, HCl]"
7,1 to 99 nM,"CCC(=O)N1CCC(Sc2ccc(-c3ccc4cnccc4c3)cc2)CC1 [Example 517, 1-(4-((4-(Isoquinolin-6-yl)phenyl)thio)piperidin-1-yl)propan-1-one, HCl]"
8,100 to 999 nM,"CN(c1ccc(-c2cnc3ccccc3c2)cc1)C1CCN(C(=O)[C@H]2CCCO2)CC1 [Example 528, {4-[Methyl-(4-quinolin-3-yl-phenyl)-amino]-piperidin-1-yl}-(R)-tetrahydrofuran-2-yl-methanone, HCl]"
9,1000 to 10000 nM,"CCC(=O)N1CCC(Oc2ccc(-c3ccc4cccnc4c3NCCN3CCCC3)cc2)CC1 [Example 335, 1-(4-{4-[8-(2-Pyrrolidin-1-yl-ethylamino)-quinolin-7-yl]-phenoxy}-piperidin-1-yl)-propan-1-one]"

# Second part, the molecule before the results:
row,SMILES,IC50
1,"COc1cccc2cc(-c3ccc(OC4CCN(C(=O)C5CC5)CC4)cc3)cnc12 [Example 58, Cyclopropyl-{4-[4-(8-methoxyquinolin-3-yl)-phenoxy]-piperidin-1-yl}-methanone]",100 to 999 nM
2,"C[C@@H]1C[C@H](C)[C@H](C(=O)N2CCC(Oc3ccc(-c4cnc5ccccc5c4)cc3)CC2)O1 (racemic) [Example 155, ((2R,3S,5R)/(2S,3R,5S)-3,5-Dimethyl-tetrahydrofuran-2-yl)-[4-(4-quinolin-3-yl-phenoxy)-piperidin-1-yl]-methanone, HCl]",1000 to 10000 nM
3,"CCC(=O)N1CCC(Oc2cc(F)c(-c3cnc4ccccc4c3)cc2F)CC1 [Example 215, 1-[4-(2,5-Difluoro-4-quinolin-3-yl-phenoxy)-piperidin-1-yl]-propan-1-one]",100 to 999 nM
4,"O=C(c1cccc(-c2ncc[nH]2)c1)N1CCC(Oc2ccc(-c3cnc4ccccc4c3)cc2)CC1 [Example 129, [3-(1H-Imidazol-2-yl)-phenyl]-[4-(4-quinolin-3-yl-phenoxy)-piperidin-1-yl]-methanone, HCl]",1000 to 10000 nM
5,"Cc1cc(C)c(C(=O)N2CCC(Oc3ccc(-c4cnc5ccccc5c4)cc3)CC2)o1 [Example 122, (3,5-Dimethylfuran-2-yl)-[4-(4-quinolin-3-yl-phenoxy)-piperidin-1-yl]-methanone, HCl]",1000 to 10000 nM
6,"O=C([C@H]1CCCO1)N1CCC(Oc2ccc(-c3ccc4nccn4c3)cc2)CC1 [Example 318, [4-(4-Imidazo[1,2-a]pyridin-6-yl-phenoxy)-piperidin-1-yl]-(R)-tetrahydro-furan-2-yl-methanone; compound with trifluoroacetic acid]",1 to 99 nM
7,"CC(C)(C)OC(=O)N1CCC(Oc2ccc(-c3cnc4ccccc4c3)cc2F)CC1 [Example 5, 4-(2-Fluoro-4-quinolin-3-yl-phenox)piperidine-1-carboxylic acid t-butyl ester]",1000 to 10000 nM
8,"CCC(=O)N1CCC(Oc2ccc(-c3ccc4cccnc4c3OC)cc2)CC1 [Example 273, 1-{4-[4-(8-Methoxyquinolin-7-yl)-phenoxy]-piperidin-1-yl}-propan-1-one, TFA salt]",1 to 99 nM
9,"CCC(=O)N1CCC(Oc2ccc(-c3cnc4ccccc4c3)c(OC)c2)CC1 [Example 209, 1-[4-(3-Methoxy-4-quinolin-3-yl-phenoxy)-piperidin-1-yl]-propan-1-one]",1000 to 10000 nM
10,"Cc1c(-c2ccc(OC3CCN(C(=O)N4CCCCC4)CC3)cc2)ccc2cccnc12 [Example 98, [4-[4-(8-methyl-7-quinolyl)phenoxy]-1-piperidyl]-(1-piperidyl)methanone]",1 to 99 nM
11,"Cc1c(-c2ccc(OC3CCN(C(=O)[C@H]4CCCO4)CC3)c(F)c2)ccc2cccnc12 [Example 226, {4-[2-Fluoro-4-(8-methylquinolin-7-yl)-phenoxy]-piperidin-1-yl}-(R)-tetrahydrofuran-2-yl-methanone]",1 to 99 nM
12,"CCC(=O)N1CCC(Oc2ccc(-c3cnc4ccccc4c3N3CCOCC3)cc2)CC1 [Example 237, 1-{4-[4-(4-Morpholin-4-yl-quinolin-3-yl)-phenoxy]-piperidin-1-yl}-propan-1-one]",1000 to 10000 nM
13,"CCC(=O)N1CCC(Oc2ccc(-c3cnc4cc(OC)ccc4c3)cc2)CC1 [Example 35, 1-{4-[4-(7-Methoxyquinolin-3-yl)-phenoxy]-piperidin-1-yl}-propan-1-one]",1 to 99 nM
14,"CN(C)c1c(-c2ccc(OC3CCN(C(=O)[C@H]4CCCO4)CC3)cc2)cnc2ccccc12 [Example 233, {4-[4-(4-Dimethylaminoquinolin-3-yl)-phenoxy]-piperidin-1-yl}-(R)-tetrahydrofuran-2-yl-methanone]",1000 to 10000 nM
15,"CCC(=O)N1CCC(C(=O)N(C)c2ccc(-c3ccc4cccnc4c3)cc2)CC1 [Example 150, 1-Propionyl-piperidine-4-carboxylic acid methyl-(4-quinolin-7-yl-phenyl)-amide]",100 to 999 nM
16,"CCC(=O)N1CCC(Oc2ccc(-c3ccc4cccnc4c3O)cc2)CC1 [Example 188, 1-{4-[4-(8-Hydroxyquinolin-7-yl)-phenoxy]-piperidin-1-yl}-propan-1-one, HCl]",100 to 999 nM
17,"CCC(=O)N1CCC(Oc2ccc(-c3cnc4c(c3)CCCC4)cc2)CC1 [Example 21, 1-{4-[4-(5,6,7,8-Tetrahydroquinolin-3-yl)-phenoxy]-piperidin-1-yl}-propan-1-one]",1000 to 10000 nM
18,O=C([C@H]1CCCO1)N1CCC(Oc2ccc(-c3ccc4cccnc4c3OCCN3CCCC3)cc2)CC1 [Example 183],1000 to 10000 nM
19,"CCC(=O)N1CCC(Oc2ccc(-c3cnc4ccccc4c3)c(Cl)c2)CC1 [Example 203, 1-[4-(3-Chloro-4-quinolin-3-yl-phenoxy)-piperidin-1-yl]-propan-1-one]",1 to 99 nM
20,"CCC(=O)N1CCC(Oc2ccc(-c3ccc4ccc(C)nc4c3)cc2)CC1 [Example 253, 1-{4-[4-(2-Methylquinolin-7-yl)-phenoxy]-piperidin-1-yl}-propan-1-one, TFA salt]",1000 to 10000 nM
21,"N#Cc1cnc2cc(-c3ccc(OC4CCN(C(=O)[C@H]5CCCO5)CC4)cc3)ccc2c1 [Example 278, 7-{4-[1-((R)-Tetrahydrofuran-2-carbonyl)-piperidin-4-yloxy]-phenyl}-quinoline-3-carbonitrile]",1 to 99 nM
22,"Cc1ccc(C)c(C(=O)N2CCC(Oc3ccc(-c4cnc5ccccc5c4)cc3)CC2)c1 [Example 128, (2,5-Dimethylphenyl)-[4-(4-quinolin-3-yl-phenoxy)-piperidin-1-yl]-methanone, HCl]",1000 to 10000 nM
23,"CONC(=O)N1CCC(Oc2ccc(-c3ccc4cccnc4c3OC)cc2)CC1 [Example 131, N-Methoxy-4-[4-(8-methoxy-7-quinolyl)phenoxy]piperidine-1-carboxamide, HCl]",1 to 99 nM
24,"CCC(=O)N1CCC(Oc2ccc(-c3cnc4cccnc4c3)cc2)CC1 [Example 12, 1-[4-(4-1,5-Naphthyridin-3-yl-phenoxy)-piperidin-1-yl]-propan-1-one]",1000 to 10000 nM
25,"Cc1c(-c2ccc(OC3CCN(C(=O)C4CC4)CC3)cc2)ccc2nccn12 [Example 287, Cyclopropyl-{4-[4-(5-methyl-imidazo[1,2-a]pyridin-6-yl)-phenoxy]-piperidin-1-yl}-methanone]",100 to 999 nM
